Source: PMC8624998, “Synthesis and Antiproliferative Evaluation of 3-Chloroazetidin-2-ones with Antimitotic Activity: Heterocyclic Bridged Analogues of Combretastatin A-4” (Pharmaceuticals, 2021)
Like-named read-outs stand apart in the source and are kept apart here. Marks after values point to notes of the source that are not given here. Blank lines part the entries; values can stand above or below the compound they belong to.

Key:
MCF-7 cells [1] = assay: Cell viability assay (MTT/AlamarBlue), antiproliferative activity; format: cell-based, human; conditions: MCF-7, 72 h; for IC50: read-out: IC50 (MCF-7, 72 h)
Description: […]. The introduction of the halogen substituent at C-3 was examined in an effort to investigate the effect on the activity of this substituent, and subsequently optimising the cytotoxic effects against MCF-7 human breast cancer cells.
(§1) The human breast carcinoma cell line MCF-7 was purchased from the European Collection of Animal Cell Cultures (ECACC). Triple negative breast cancer Hs578T cells and its invasive variant Hs578Ts(i)8 were a kind gift from Dr. Susan McDonnell, School of Chemical and Bioprocess Engineering, University College Dublin. U266 cells were a gift from Dr. Tony McElligott, School of Medicine, St James’s Hospital, Trinity College Dublin. HT-29 cells were purchased from the European Collection of Cell Cultures (originating from a human adenocarcinoma of the colon). The human breast carcinoma cell line MDA-MB-231 and the HL-60 cells derived from a patient with acute myeloid leukaemia were both obtained from ECACC (Salisbury, UK). The SW-480 cells were a kind gift from Dr. Brian Flood, School of Biochemistry and Immunology, Trinity College Dublin. HEK-293T (normal epithelial embryonic kidney cells) were cultured in Dulbecco’s Modified Eagle’s Medium (DMEM) with GlutaMAXTM-I in the absence of non-essential amino acids. Human breast cancer MCF-7 cells and multiple myeloma U266 cells were cultured in Minimum Essential Media (MEM) with GlutaMAX™-I, supplemented with 1% (v/v) non-essential amino acids, 10% 2(v/v) foetal bovine serum (FBS) and 1% (v/v) penicillin/streptomycin 5000 U/mL. MDA-MB-231 cells were maintained in DMEM supplemented with 10% (v/v) foetal bovine serum, 2 mM L-glutamine and 100 μg/mL penicillin/streptomycin (complete medium). Colon cancer HT-29 and SW-480 and triple negative breast cancer Hs578T and its invasive variant Hs578T8i were cultured in DMEM with GlutaMAX™-I, with the same supplement in the absence of non-essential amino acids. Leukaemia HL-60 cancer cells were cultured in Roswell Park Memorial Institute Media (RPMI-1640) with GlutaMAX™-I, supplemented with 10% FCS media, and 100 μg/mL penicillin/streptomycin as above. Cell numbers were monitored using a haemocytometer. Cell culture flasks were incubated in a humidified incubator (5% CO2/95% air) at 37 °C. All cell lines were sub-cultured three times per week with trypsinisation using TrypLE Express (1X) required for adherent cell lines.
(§2) . All stock solutions and serial dilution in ethanol/DMSO were stored at -20 °C. All cells were seeded at a density of 2.5 × 10^4 cells/mL in a 96-well plate (200 μL per well). The cells were incubated in a […] atmosphere at 37 °C for 24 h, then treated with test compound (2 μL of stock solutions per 200-microlitre well) in ethanol to obtain a concentration range of 1 nM–200 μM for the study. The plates were then re-incubated for a further 72 h. Control wells contained an equivalent volume of the vehicle ethanol or DMSO (1% v/v). MTT cell viability assay: The culture medium was removed, and the cells were washed with phosphate buffered saline (PBS, […]). MTT (dissolved in PBS, […]) was added to obtain a final concentration of MTT (1 mg/mL). Cells were incubated at 37 °C for 3 h in the dark. Solubilisation was commenced by the addition of DMSO ([…]) and the cells were maintained at 20 °C in the dark for 20 min before reading the absorbance to ensure complete colour diffusion. The absorbance value of control cells (no added compound) was set to 100% cell viability and absorbance versus cell density per well was determined to assess cell viability using Graph-Pad Prism software. AlamarBlue cell viability assay: Cells were seeded in 96-well plates (e.g., MCF-7, 5 × 10^3 cells/well) and (HT-29 cells, 1 × 10^3 cells/well) and (HL-60 cells, 1 × 10^4 cells/well) with a total volume per well of 200 µL. After 24 h, cells were treated in triplicate with serial dilutions of CA-4 or β-lactam analogues (0.001–100 μM), medium alone or vehicle (1% ethanol (v/v)). […]

SW480 cells = assay: Cell viability assay, antiproliferative activity; format: cell-based, human; conditions: SW480, 10 μM
Method: […]. The corresponding values for 10e in these cell lines were 161 nM (HL-60), 55 nM (SW480) and 135 nM (HT-29). […] […]. SW480 colon cells expressed low levels of the UDP-glucuronosyltransferase (UGT) protein compared to expression levels in HT-29 cells. […] […].
as §1, §2

MCF-7 cells [2] = conditions: MCF-7, 72 h, previously reported compounds, cited from earlier work
MCF-7 cells [3] = assay: Lactate dehydrogenase (LDH) assay for cytotoxicity; format: cell-based; conditions: Homo sapiens, MCF7; MCF-7, compound concentration 10 μM, 24 h; read-out: Lactate Dehydrogenase assay: % cell lysis (cell death)
Method: The toxicity and selectivity of 10n towards normal cells was investigated in the non-tumourigenic cell line HEK-293T (normal human epithelial embryonic kidney cells). […] The cytotoxic effect of selected 3-chloro-β-lactams 10e, 10f, 10i, 10n and 3,3-dichloro-β-lactams 11e and 11n in MCF-7 cells was initially determined using the lactate dehydrogenase (LDH) assay.
The cytotoxicity of selected compounds was determined using the CytoTox 96 non-radioactive cytotoxicity assay (Promega Corporation, Madison, WI, USA). Briefly, MCF-7 cells were seeded in a 96-well plate (200 μL per well), at a density of 2.5 × 10^4 cells/mL, and incubated for 24 h. The cells were then treated with selected β-lactam compounds as described above for the cell viability assay. […] Supernatant (50 μL) was removed from each well to a 96-well plate. Reconstituted ‘CytoTox 96® Reagent (50 μL) was added to each well and the plate was placed in the dark at 20 °C for 30 min. ‘Stop solution’ (50 μL) was added to each well and the samples were analysed at 490 nm using a Dynatech MR5000 plate reader. The percentage cell death at 10 μM was calculated.

MDA-MB-231 cells = assay: Cell viability assay, antiproliferative activity; format: cell-based; conditions: Homo sapiens; MDA-MB-231, 72 h; 10e and 11n results from NCI; read-out: Antiproliferative Activity IC50 MDA-MB-231, 72 h
Description: Selected β-lactam compounds were next evaluated in the triple negative cell line MDA-MB-231 (Table 4). […] These cancers are difficult to treat since they are generally not responsive to hormone therapies such as the selective oestrogen receptor modulator (SERM) tamoxifen, or aromatase inhibitors such as anastrozole, or to the monoclonal antibody Herceptin, which targets the HER2 receptor. There are fewer treatment options available for TNBC compared with ER+, PR+ and HER2+ breast cancers and the prognosis is poorer. […]. The human breast carcinoma cell line MCF-7 was purchased from the European Collection of Animal Cell Cultures (ECACC). Triple negative breast cancer Hs578T cells and its invasive variant Hs578Ts(i)8 were a kind gift from Dr. Susan McDonnell, School of Chemical and Bioprocess Engineering, University College Dublin. U266 cells were a gift from Dr. Tony McElligott, School of Medicine, St James’s Hospital, Trinity College Dublin. HT-29 cells were purchased from the European Collection of Cell Cultures (originating from a human adenocarcinoma of the colon). The human breast carcinoma cell line MDA-MB-231 and the HL-60 cells derived from a patient with acute myeloid leukaemia were both obtained from ECACC (Salisbury, UK). The SW-480 cells were a kind gift from Dr. Brian Flood, School of Biochemistry and Immunology, Trinity College Dublin. HEK-293T (normal epithelial embryonic kidney cells) were cultured in Dulbecco’s Modified Eagle’s Medium (DMEM) with GlutaMAXTM-I in the absence of non-essential amino acids. Human breast cancer MCF-7 cells and multiple myeloma U266 cells were cultured in Minimum Essential Media (MEM) with GlutaMAX™-I, supplemented with 1% (v/v) non-essential amino acids, 10% 2(v/v) foetal bovine serum (FBS) and 1% (v/v) penicillin/streptomycin 5000 U/mL. MDA-MB-231 cells were maintained in DMEM supplemented with 10% (v/v) foetal bovine serum, 2 mM L-glutamine and 100 μg/mL penicillin/streptomycin (complete medium). Colon cancer HT-29 and SW-480 and triple negative breast cancer Hs578T and its invasive variant Hs578T8i were cultured in DMEM with GlutaMAX™-I, with the same supplement in the absence of non-essential amino acids. Leukaemia HL-60 cancer cells were cultured in Roswell Park Memorial Institute Media (RPMI-1640) with GlutaMAX™-I, supplemented with 10% FCS media, and 100 μg/mL penicillin/streptomycin as above. Cell numbers were monitored using a haemocytometer. Cell culture flasks were incubated in a humidified incubator (5% CO2/95% air) at 37 °C. All cell lines were sub-cultured three times per week with trypsinisation using TrypLE Express (1X) required for adherent cell lines.
as §2, with “software.” for “software. AlamarBlue cell viability assay: Cells were seeded in 96-well plates (e.g., MCF-7, 5 × 10^3 cells/well) and (HT-29 cells, 1 × 10^3 cells/well) and (HL-60 cells, 1 × 10^4 cells/well) with a total volume per well of 200 µL. After 24 h, cells were treated in triplicate with serial dilutions of CA-4 or β-lactam analogues (0.001–100 μM), medium alone or vehicle (1% ethanol (v/v)).”

Structure (SMILES): COc1cc(N2C(=O)C(Cl)(Cl)C2c2ccc(SC)cc2)cc(OC)c1OC (stereo not drawn) [Compound 11i]
IC50 (MCF-7 cells [2]; footnote g): 291 ± 30 nM

Structure (SMILES): COc1ccc(C2N(c3cc(OC)c(OC)c(OC)c3)C(=O)C2(Cl)Cl)cc1C (stereo not drawn) [Compound 11o]
IC50 (MCF-7 cells [2]; footnote h): 747 ± 60 nM

Structure (SMILES): COc1ccc(C2C(Br)C(=O)N2c2cc(OC)c(OC)c(OC)c2)cc1O (stereo not drawn) [Compound 16j, 3-Bromo-4-(3-hydroxy-4-methoxyphenyl)-1-(3,4,5-trimethoxyphenyl) azetidin-2-one]
inhibition of cell viability at a concentration of 10 μM (MCF-7 cells [1]; 10 μM): 40% (10 μM) ^c,i
SW480 inhibition of cell viability (SW480 cells): 48%

Structure (SMILES): COc1ccc(C(=O)c2cc(OC)c(OC)c(OC)c2)cc1O [Compound 3a, phenstatin, reference compound]
cytotoxicity at 10 µM (MCF-7 cells [3]): 12%

Structure (SMILES): COc1cc(N2C(=O)C(Cl)C2c2ccc(SC)cc2)cc(OC)c1OC (stereo not drawn) [Compound 10i]
cytotoxicity at 10 µM (MCF-7 cells [3]): 3%
IC50 (MCF-7 cells [2]; footnote g): 73 ± 4 nM

Structure (SMILES): CCOc1ccc([C@@H]2N(c3cc(OC)c(OC)c(OC)c3)C(=O)C2(Cl)Cl)cc1 [Compound 11f]
IC50 (MDA-MB-231 cells): 389 ± 50 nM
IC50 (MCF-7 cells [2]; footnote g): 164 ± 15 nM

Structure (SMILES): COc1ccc(C2C(Cl)C(=O)N2c2cc(OC)c(OC)c(OC)c2)cc1Cl (stereo not drawn) [Compound 10o]
IC50 (MCF-7 cells [2]; footnote h): 433 ± 50 nM

Structure (SMILES): COc1cc(N2C(=O)C(Cl)C2c2ccc3ccccc3c2)cc(OC)c1OC (stereo not drawn) [Compound 10k, 3-Chloro-1-(3,4,5-trimethoxyphenyl)-4-(naphthalen-2-yl)azetidin-2-one]
IC50 (MCF-7 cells [1]; Homo sapiens, MCF7, 72 h): 200 nM
IC50 (MCF-7 cells [1]): 202 ± 15 nM
IC50 (MDA-MB-231 cells): 205 ± 34 nM

Structure (SMILES): COc1cc(N2C(=O)C(Cl)C2c2ccc(OCc3ccccc3)cc2)cc(OC)c1OC (stereo not drawn) [Compound 10h, 4-(4-Benzyloxyphenyl)-3-chloro-1-(3,4,5-trimethoxyphenyl)azetidin-2-one]
IC50 (MCF-7 cells [1]; Homo sapiens, MCF7, 72 h): 59900 ± 6990 nM
melting point: 96 to 98 °C

Structure (SMILES): COc1cc(N2C(=O)C(Cl)C2c2cccc3ccccc23)cc(OC)c1OC (stereo not drawn) [Compound 10j, 3-Chloro-1-(3,4,5-trimethoxyphenyl)-4-(naphthalen-1-yl)azetidin-2-one]
IC50 (MCF-7 cells [1]; Homo sapiens, MCF7, 72 h): 14700 ± 2260 nM
cytotoxicity at 10 µM (MCF-7 cells [3]): 4%

Continued, in another order:

IC50 (MCF-7 cells [1]; Homo sapiens, MCF7, 72 h): 1140 ± 300 nM
Structure (SMILES): CCOc1ccc(C2C(Br)C(=O)N2c2cc(OC)c(OC)c(OC)c2)cc1 (stereo not drawn) [Compound 16b, 3-Bromo-4-(4-ethoxyphenyl)-1-(3,4,5-trimethoxyphenyl)azetidin-2-one]
SW480 inhibition of cell viability (SW480 cells): 50%

IC50 (MCF-7 cells [1]; Homo sapiens, MCF7, 72 h): 62300 ± 10200 nM
melting point: 82 to 84 °C
Structure (SMILES): COc1cc(N2C(=O)C(Cl)(Cl)C2c2ccc(Oc3ccccc3)cc2)cc(OC)c1OC (stereo not drawn) [Compound 11g, 3,3-Dichloro-1-(3,4,5-trimethoxyphenyl)-4-(4-phenoxyphenyl)azetidin-2-one]

IC50 (MCF-7 cells [1]; Homo sapiens, MCF7, 72 h): 14800 ± 1580 nM
melting point: 101 to 102 °C
Structure (SMILES): COc1ccc(N2C(=O)C(Cl)C2c2cc(OC)c(OC)c(OC)c2)cc1 (stereo not drawn) [Compound 12a, 3-Chloro-1-(4-methoxyphenyl)-4-(3,4,5-trimethoxyphenyl)azetidin-2-one]

IC50 (MCF-7 cells [1]; Homo sapiens, MCF7, 72 h): 12800 ± 1080 nM
melting point: 150 to 153 °C
Structure (SMILES): COc1cc(N2C(=O)C(Cl)(Cl)C2c2ccc(Cl)cc2)cc(OC)c1OC (stereo not drawn) [Compound 11b, 3,3-Dichloro-4-(4-chlorophenyl)-1-(3,4,5-trimethoxyphenyl)azetidin-2-one]

IC50 (MCF-7 cells [1]; Homo sapiens, MCF7, 72 h): 7990 ± 700 nM
melting point: 146 to 148 °C
Structure (SMILES): COc1cc(N2C(=O)C(Cl)(Cl)C2c2cccc3ccccc23)cc(OC)c1OC (stereo not drawn) [Compound 11j, 3,3-Dichloro-1-(3,4,5-trimethoxyphenyl)-4-(naphthalen-1-yl)azetidin-2-one]
